Data published in ChEMBL document CHEMBL1133244, “Solid-phase synthesis of an arylsulfone hydroxamate library” (Bioorg Med Chem Lett, 2000).
Calls of active or inactive are those of the source. The calls are words filed in the database; no cut-off is given here.

What was measured:
Stromelysin-1 [1] = molecular target: T1, Stromelysin-1 (Homo sapiens, UniProt P08254); assay: Inhibitory activity against recombinant matrix metalloprotease-3
[2] = molecular target: T2, 72 kDa type IV collagenase (Homo sapiens, UniProt P08253); assay: Inhibitory activity against recombinant matrix metalloprotease-2
T2 sequence (P08253 whole entry): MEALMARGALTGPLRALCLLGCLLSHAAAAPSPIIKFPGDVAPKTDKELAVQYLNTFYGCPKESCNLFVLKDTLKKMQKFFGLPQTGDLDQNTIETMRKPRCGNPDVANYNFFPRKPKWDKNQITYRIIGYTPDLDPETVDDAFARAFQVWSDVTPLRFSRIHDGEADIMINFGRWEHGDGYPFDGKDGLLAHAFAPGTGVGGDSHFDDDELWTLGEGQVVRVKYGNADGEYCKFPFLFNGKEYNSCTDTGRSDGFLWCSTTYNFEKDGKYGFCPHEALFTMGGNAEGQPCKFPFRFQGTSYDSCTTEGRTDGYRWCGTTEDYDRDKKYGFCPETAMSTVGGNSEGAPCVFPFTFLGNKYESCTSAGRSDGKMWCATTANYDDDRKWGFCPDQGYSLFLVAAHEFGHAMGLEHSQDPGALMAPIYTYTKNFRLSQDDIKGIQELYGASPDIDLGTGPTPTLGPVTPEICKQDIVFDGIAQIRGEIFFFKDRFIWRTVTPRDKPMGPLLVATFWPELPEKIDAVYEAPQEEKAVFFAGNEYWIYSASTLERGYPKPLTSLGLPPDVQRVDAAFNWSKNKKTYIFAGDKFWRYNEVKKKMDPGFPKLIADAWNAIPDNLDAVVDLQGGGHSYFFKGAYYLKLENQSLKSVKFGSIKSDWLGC

Interstitial collagenase [3] = molecular target: T3, Interstitial collagenase (Homo sapiens, UniProt P03956); assay: Inhibitory activity against recombinant matrix metalloprotease-1
T3 sequence (P03956 whole entry): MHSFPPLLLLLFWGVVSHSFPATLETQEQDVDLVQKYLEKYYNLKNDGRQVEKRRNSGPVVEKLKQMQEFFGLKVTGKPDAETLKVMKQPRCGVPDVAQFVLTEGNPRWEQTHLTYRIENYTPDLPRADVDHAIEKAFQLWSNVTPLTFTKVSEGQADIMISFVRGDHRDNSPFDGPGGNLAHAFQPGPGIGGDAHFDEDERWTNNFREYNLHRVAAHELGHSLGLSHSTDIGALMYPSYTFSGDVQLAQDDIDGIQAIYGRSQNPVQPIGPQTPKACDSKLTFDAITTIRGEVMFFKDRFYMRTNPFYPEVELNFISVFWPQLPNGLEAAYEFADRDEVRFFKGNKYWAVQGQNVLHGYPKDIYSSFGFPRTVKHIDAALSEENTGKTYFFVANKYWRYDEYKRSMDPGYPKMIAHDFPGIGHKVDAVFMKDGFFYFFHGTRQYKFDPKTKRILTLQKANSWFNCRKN

[4] = molecular target: Phosphodiesterase 4 (Cavia porcellus); assay: Phosphodiesterase 4 inhibitory activity measured against guinea pig macrophage homogenate
Stromelysin-1 [5] = molecular target: T1, Stromelysin-1; assay: In vitro inhibition of human recombinant Matrix metalloprotease-3.
Interstitial collagenase [6] = molecular target: T3, Interstitial collagenase; assay: In vitro inhibition of human recombinant Matrix metalloprotease-1.
[7] = In vitro for the inhibition of TNF alpha release by human peripheral blood monocytes (PBMs); assay type: functional
[8] = molecular target: Disintegrin and metalloproteinase domain-containing protein 17 (Homo sapiens) (UniProt P78536); assay: Inhibitory activity against TACE
Sequence of Disintegrin and metalloproteinase domain-containing protein 17 (Homo sapiens) (P78536 whole entry, the tested form may be a part): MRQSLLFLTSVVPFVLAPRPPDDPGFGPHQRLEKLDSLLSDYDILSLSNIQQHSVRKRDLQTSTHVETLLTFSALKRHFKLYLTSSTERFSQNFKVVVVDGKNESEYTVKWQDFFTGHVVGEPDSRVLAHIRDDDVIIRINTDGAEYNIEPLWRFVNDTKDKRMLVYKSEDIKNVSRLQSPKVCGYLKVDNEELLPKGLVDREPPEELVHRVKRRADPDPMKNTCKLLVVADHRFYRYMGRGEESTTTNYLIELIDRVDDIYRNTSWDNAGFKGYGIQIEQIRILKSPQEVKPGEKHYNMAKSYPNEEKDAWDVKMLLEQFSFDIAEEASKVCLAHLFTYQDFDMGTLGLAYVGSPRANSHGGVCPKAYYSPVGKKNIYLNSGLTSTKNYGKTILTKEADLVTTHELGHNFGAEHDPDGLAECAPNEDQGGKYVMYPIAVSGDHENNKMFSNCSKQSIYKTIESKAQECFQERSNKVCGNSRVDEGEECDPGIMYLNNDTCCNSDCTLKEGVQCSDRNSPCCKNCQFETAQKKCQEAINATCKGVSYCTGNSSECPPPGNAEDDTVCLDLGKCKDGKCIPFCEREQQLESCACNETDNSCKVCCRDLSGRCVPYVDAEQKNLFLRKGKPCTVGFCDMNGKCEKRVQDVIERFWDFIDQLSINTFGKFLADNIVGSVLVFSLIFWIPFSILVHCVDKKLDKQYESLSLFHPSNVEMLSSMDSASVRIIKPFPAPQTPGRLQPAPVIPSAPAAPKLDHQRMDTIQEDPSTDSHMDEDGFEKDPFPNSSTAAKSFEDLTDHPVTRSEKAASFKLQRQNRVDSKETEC

[9] = molecular target: T2, 72 kDa type IV collagenase
Description: In vitro inhibition of human recombinant Matrix metalloprotease-2.

T1 sequence (P08254 whole entry): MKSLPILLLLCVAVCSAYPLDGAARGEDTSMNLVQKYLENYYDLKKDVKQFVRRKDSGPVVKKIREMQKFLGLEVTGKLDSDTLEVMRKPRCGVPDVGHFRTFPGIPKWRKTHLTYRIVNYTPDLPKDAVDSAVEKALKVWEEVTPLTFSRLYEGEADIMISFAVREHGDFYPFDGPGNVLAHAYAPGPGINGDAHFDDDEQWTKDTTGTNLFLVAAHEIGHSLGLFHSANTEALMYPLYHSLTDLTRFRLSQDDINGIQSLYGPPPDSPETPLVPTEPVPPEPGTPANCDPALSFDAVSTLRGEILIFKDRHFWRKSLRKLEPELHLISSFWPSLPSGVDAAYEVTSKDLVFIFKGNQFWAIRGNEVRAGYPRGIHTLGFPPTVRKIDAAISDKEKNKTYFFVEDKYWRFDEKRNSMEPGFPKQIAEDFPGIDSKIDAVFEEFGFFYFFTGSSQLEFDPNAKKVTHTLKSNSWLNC

| SMILES | IC50 (Stromelysin-1 [1]) | IC50 [2] | IC50 (Interstitial collagenase [3]) | IC50 [4] | Ki (Stromelysin-1 [5]) | Ki (Interstitial collagenase [6]) | IC50 [7] | Activity [8] | Ki [9] |
| --- | --- | --- | --- | --- | --- | --- | --- | --- | --- |
| COc1ccc(S(=O)(=O)C(CCC(=O)N(C)c2ccccc2)CC(=O)NO)cc1OC1CCCC1 (configuration not stated) | > 10 µM | > 10 µM | > 10 µM | 0.05 µM | – | – | – | – | – |
| COc1ccc(S(=O)(=O)C(CC(=O)NO)c2ccccc2OCc2ccccc2)cc1OC1CCCC1 (configuration not stated) | > 10 µM | > 10 µM | > 10 µM | 1.5 µM | – | – | – | – | – |
| CCCCC(CC(=O)NO)S(=O)(=O)c1ccc(OC)cc1 (configuration not stated) | – | – | – | – | 0.404 µM | 4.17 µM | > 10 µM | inactive | 0.03 µM |
| COc1ccc(S(=O)(=O)C(CC(=O)NO)CN(C)C(=O)c2ccccc2)cc1OC1CCCC1 (configuration not stated) | > 10 µM | > 10 µM | > 10 µM | 0.974 µM | – | – | – | – | – |
| COc1ccc(S(=O)(=O)C(COCc2ccccc2)CC(=O)NO)cc1 (configuration not stated) | – | – | – | – | 1.43 µM | > 10 µM | > 10 µM | inactive | 0.038 µM |
| COc1ccc(S(=O)(=O)C(CC(=O)NO)c2ccc(OC(C)C)cc2)cc1 (configuration not stated) | – | – | – | – | > 10 µM | > 10 µM | > 10 µM | inactive | > 10 µM |
| COc1ccc(S(=O)(=O)C(CCc2ccccc2)CC(=O)NO)cc1 (configuration not stated) | – | – | – | – | 0.35 µM | 2.16 µM | > 10 µM | inactive | 0.043 µM |
| COc1ccc(S(=O)(=O)C(CCCCc2ccc3c(c2)OCO3)CC(=O)NO)cc1OC (configuration not stated) | > 10 µM | > 10 µM | > 10 µM | 0.0064 µM | – | – | – | – | – |
| COc1ccc(S(=O)(=O)C(CCCCc2ccccc2)CC(=O)NO)cc1 (configuration not stated) | – | – | – | – | – | – | > 10 µM | inactive | – |
| COc1ccc(S(=O)(=O)C(CCCC(=O)N2CCCc3ccccc32)CC(=O)NO)cc1OC (configuration not stated) | > 10 µM | > 10 µM | > 10 µM | 0.295 µM | – | – | – | – | – |
| CCOC(=O)C1CCCC(C(CC(=O)NO)S(=O)(=O)c2ccc(OC)cc2)C1 (configuration not stated) | – | – | – | – | 0.06 µM | 1.01 µM | 4.6 µM | inactive | 0.0008 µM |
| COc1ccc(S(=O)(=O)C(CCc2ccc(Oc3ccccc3)cc2)CC(=O)NO)cc1OC1CCCC1 (configuration not stated) | > 10 µM | > 10 µM | > 10 µM | 0.032 µM | – | – | – | – | – |
| COc1ccc(S(=O)(=O)C(CC(=O)NO)CC(C)C)cc1OC1CCCC1 (configuration not stated) | > 10 µM | > 10 µM | > 10 µM | 0.102 µM | – | – | – | – | – |
| COc1ccc(S(=O)(=O)C(CC(=O)NO)c2ccccc2)cc1OC (configuration not stated) | > 10 µM | > 10 µM | > 10 µM | 0.58 µM | – | – | 0.45 µM | inactive | – |
| COc1ccc(S(=O)(=O)C(CC(=O)NO)CC(C)CC(C)(C)C)cc1 (configuration not stated) | – | – | – | – | 0.676 µM | 1.72 µM | 8 µM | inactive | 0.027 µM |
| COc1ccc(S(=O)(=O)C(CC(=O)NO)c2ccccc2)cc1 (configuration not stated) | – | – | – | – | 3.3 µM | > 10 µM | > 10 µM | inactive | – |
| COc1ccc(S(=O)(=O)C(CC(=O)NO)c2ccc(OCc3ccccc3)cc2)cc1OC1CCCC1 (configuration not stated) | > 10 µM | > 10 µM | > 10 µM | 0.021 µM | – | – | – | – | – |
| COc1ccc(S(=O)(=O)C(CCN(C)C(=O)c2ccccc2)CC(=O)NO)cc1OC1CCCC1 (configuration not stated) | > 10 µM | > 10 µM | > 10 µM | 1.04 µM | – | – | – | – | – |
| CCCC(CC(=O)NO)S(=O)(=O)c1ccc(OC)c(OC)c1 (configuration not stated) | > 10 µM | > 10 µM | > 10 µM | 5.25 µM | – | – | – | – | – |
| COc1ccc(Oc2cccc(C(CC(=O)NO)S(=O)(=O)c3ccc(OC)c(OC4CCCC4)c3)c2)cc1 (configuration not stated) | > 10 µM | > 10 µM | > 10 µM | 0.049 µM | – | – | – | – | – |

| SMILES | IC50 (Stromelysin-1 [1]) | IC50 [2] | IC50 (Interstitial collagenase [3]) | IC50 [4] | Ki (Stromelysin-1 [5]) | Ki (Interstitial collagenase [6]) | IC50 [7] | Activity [8] | Ki [9] |
| --- | --- | --- | --- | --- | --- | --- | --- | --- | --- |
| COc1ccc(S(=O)(=O)C(CCOC(=O)N(C)c2ccccc2)CC(=O)NO)cc1OC1CCCC1 (configuration not stated) | > 10 µM | > 10 µM | > 10 µM | 0.14 µM | – | – | – | – | – |
| COc1ccc(S(=O)(=O)C(CCCC(=O)N(C)c2ccccc2)CC(=O)NO)cc1OC1CCCC1 (configuration not stated) | > 10 µM | > 10 µM | > 10 µM | 0.118 µM | – | – | – | – | – |
| COc1ccc(S(=O)(=O)C(CCC2CCCCC2)CC(=O)NO)cc1 (configuration not stated) | – | – | – | – | 0.59 µM | 0.4 µM | > 10 µM | inactive | 0.036 µM |
| COc1ccc(C(=O)Nc2c(Cl)cncc2Cl)cc1OC1CCCC1 | – | – | – | – | – | – | 0.005 µM | – | – |
| COc1ccc(S(=O)(=O)C(CCc2ccccc2)CC(=O)NO)cc1OC (configuration not stated) | > 10 µM | > 10 µM | > 10 µM | 3.03 µM | – | – | – | – | – |
| COc1ccc(S(=O)(=O)C(CC(=O)NO)c2cccc(OCc3ccccc3)c2)cc1OC1CCCC1 (configuration not stated) | > 10 µM | > 10 µM | > 10 µM | 0.089 µM | – | – | – | – | – |
| CCCC(CC(=O)NO)S(=O)(=O)c1ccc(OC)c(OC2CCCC2)c1 (configuration not stated) | > 10 µM | > 10 µM | > 10 µM | 0.055 µM | – | – | – | – | – |
| COc1ccc(S(=O)(=O)C(CC(=O)NO)c2cccc(Oc3ccccc3)c2)cc1OC1CCCC1 (configuration not stated) | > 10 µM | > 10 µM | > 10 µM | 0.26 µM | – | – | – | – | – |
| COc1ccc(S(=O)(=O)C(CCCN2C(=O)c3ccccc3C2=O)CC(=O)NO)cc1OC1CCCC1 (configuration not stated) | > 10 µM | > 10 µM | > 10 µM | 0.032 µM | – | – | – | – | – |
| COc1ccc(S(=O)(=O)C(CCC(=O)N2CCCc3ccccc32)CC(=O)NO)cc1OC1CCCC1 (configuration not stated) | > 10 µM | > 10 µM | > 10 µM | 0.016 µM | – | – | – | – | – |
| CCCCCCC(CC(=O)NO)S(=O)(=O)c1ccc(OC)c(OC2CCCC2)c1 (configuration not stated) | > 10 µM | > 10 µM | > 10 µM | 0.0095 µM | – | – | – | – | – |
| COc1ccc(S(=O)(=O)C(CCC(=O)N2CCCc3ccccc32)CC(=O)NO)cc1OC (configuration not stated) | > 10 µM | > 10 µM | > 10 µM | 0.564 µM | – | – | – | – | – |
| COc1ccc(S(=O)(=O)C(CCc2ccc(OCc3ccccc3)cc2)CC(=O)NO)cc1OC1CCCC1 (configuration not stated) | > 10 µM | > 10 µM | > 10 µM | 0.063 µM | – | – | – | – | – |
| COc1ccc(S(=O)(=O)C(CCc2ccccc2)CC(=O)NO)cc1OC1CCCC1 (configuration not stated) | > 10 µM | > 10 µM | > 10 µM | 0.031 µM | – | – | – | – | – |
| COc1ccc(S(=O)(=O)C(CCCc2ccccc2)CC(=O)NO)cc1OC (configuration not stated) | > 10 µM | > 10 µM | > 10 µM | 0.014 µM | – | – | 0.009 µM | inactive | – |
| COc1ccc(S(=O)(=O)C(CCN(C)C(=O)OCc2ccccc2)CC(=O)NO)cc1OC1CCCC1 (configuration not stated) | > 10 µM | > 10 µM | > 10 µM | 0.46 µM | – | – | – | – | – |
| COc1ccc(S(=O)(=O)C(CCCC(=O)N2CCCc3ccccc32)CC(=O)NO)cc1OC1CCCC1 (configuration not stated) | > 10 µM | > 10 µM | > 10 µM | 0.036 µM | – | – | – | – | – |
| COc1ccc(S(=O)(=O)C(CC(=O)NO)CC(C)C)cc1OC (configuration not stated) | > 10 µM | > 10 µM | > 10 µM | > 10 µM | – | – | – | – | – |
| COc1ccc(S(=O)(=O)C(CCc2ccc(OCc3ccccc3)cc2)CC(=O)NO)cc1OC (configuration not stated) | > 10 µM | > 10 µM | > 10 µM | 0.064 µM | – | – | – | – | – |
